Data from PubChem BioAssay AID2060890 (Molecular Pharmacology Branch, DTP, NCI, 2025).
Where “and” joins values, the source holds several entries; their conditions need not be identical. Identical values can stand only once.

System: LG0703-F948-PDC complex spheroid viability
Assay: Anticancer human tumor LG0703-F948-PDC patient-derived lung adenocarcinoma cell line growth inhibition [RAS]
Conditions: for viability, T/C: stronger effect = lower value; active = viability on the fitted dose curve at most 10% of control; inactive = the rest
Method in brief: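 Tumour cells grown as complex spheroids with HUVEC endothelial cells and mesenchymal stem cells, treated with RAS pathway inhibitor combinations. Each agent spans half-log steps from near clinical Cmax, or 10 microM where Cmax is unknown.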

[1] = curve of first compound, second compound 0.0316 µM
[2] = curve of first compound, second compound 0.1 µM
[3] = curve of first compound, second compound 0.316 µM
[4] = curve of first compound, second compound 1 µM
[5] = curve of first compound, second compound 3.16 µM
[6] = curve of first compound, second compound 10 µM
[7] = second compound 0.0316 µM, first compound 0.0316 µM
[8] = second compound 0.0316 µM, first compound 0.1 µM
[9] = second compound 0.1 µM, first compound 0.0316 µM
[10] = second compound 0.1 µM, first compound 0.1 µM
[11] = second compound 0.316 µM, first compound 0.0316 µM
[12] = second compound 0.316 µM, first compound 0.1 µM
[13] = second compound 1 µM, first compound 0.0316 µM
[14] = second compound 1 µM, first compound 0.1 µM
[15] = second compound 3.16 µM, first compound 0.0316 µM
[16] = second compound 3.16 µM, first compound 0.1 µM
[17] = second compound 10 µM, first compound 0.0316 µM
[18] = second compound 10 µM, first compound 0.1 µM
[19] = second compound 0.0316 µM, first compound 0.316 µM
[20] = second compound 0.0316 µM, first compound 1 µM
[21] = second compound 0.0316 µM, first compound 3.16 µM
[22] = second compound 0.0316 µM, first compound 10 µM
[23] = second compound 0.1 µM, first compound 0.316 µM
[24] = second compound 0.1 µM, first compound 1 µM
[25] = second compound 0.1 µM, first compound 3.16 µM
[26] = second compound 0.1 µM, first compound 10 µM
[27] = second compound 0.316 µM, first compound 0.316 µM
[28] = second compound 0.316 µM, first compound 1 µM
[29] = second compound 0.316 µM, first compound 3.16 µM
[30] = second compound 0.316 µM, first compound 10 µM
[31] = second compound 1 µM, first compound 0.316 µM
[32] = second compound 1 µM, first compound 1 µM
[33] = second compound 1 µM, first compound 3.16 µM
[34] = second compound 1 µM, first compound 10 µM
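Note: spheroids exposed to agents for 7 days.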
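Throughout, for viability, T/C: 100% = DMSO vehicle wells.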

CC(C)n1nc(-c2ccc3oc(N)nc3c2)c2c(N)ncnc21 + C#Cc1c(F)ccc2cc(O)cc(-c3ncc4c(N5CC6CCC(C5)N6)nc(OCC56CCCN5CC(F)C6)nc4c3F)c12
2.13 nM: IC50 [4]
4.71 nM: IC50 [1]
inactive: viability, T/C (second compound 0.0316 µM, first compound 0.000316 µM) 90.7% | viability, T/C (second compound 0.0316 µM, first compound 0.001 µM) 82.5% | viability, T/C (second compound 0.0316 µM, first compound 0.00316 µM) 59.2% | viability, T/C (second compound 0.0316 µM, first compound 0.01 µM) 32% | viability, T/C [7] 18% | viability, T/C [8] 12.3% | viability, T/C (second compound 0.1 µM, first compound 0.000316 µM) 80.7% | viability, T/C (second compound 0.1 µM, first compound 0.001 µM) 85.6% | viability, T/C (second compound 0.1 µM, first compound 0.00316 µM) 47.7% | viability, T/C (second compound 0.1 µM, first compound 0.01 µM) 34% | viability, T/C [9] 19.7% | viability, T/C [10] 11% | viability, T/C (second compound 0.316 µM, first compound 0.000316 µM) 88.3% | viability, T/C (second compound 0.316 µM, first compound 0.001 µM) 75.3% | viability, T/C (second compound 0.316 µM, first compound 0.00316 µM) 57.6% | viability, T/C (second compound 0.316 µM, first compound 0.01 µM) 27.1% | viability, T/C [11] 11.2% | viability, T/C (second compound 1 µM, first compound 0.000316 µM) 67.6% | viability, T/C (second compound 1 µM, first compound 0.001 µM) 51% | viability, T/C (second compound 1 µM, first compound 0.00316 µM) 50.2% | viability, T/C (second compound 1 µM, first compound 0.01 µM) 21.1% | viability, T/C (second compound 3.16 µM, first compound 0.000316 µM) 58.6% | viability, T/C (second compound 3.16 µM, first compound 0.001 µM) 44.2% | viability, T/C (second compound 3.16 µM, first compound 0.00316 µM) 23.4% | viability, T/C (second compound 3.16 µM, first compound 0.01 µM) 13.9% | viability, T/C (second compound 10 µM, first compound 0.000316 µM) 50.9% | viability, T/C (second compound 10 µM, first compound 0.001 µM) 37.8% | viability, T/C (second compound 10 µM, first compound 0.00316 µM) 16.5%
3.96 nM: IC50 [2]
0.608 nM: IC50 [5]
active: viability, T/C [12] 8.26% | viability, T/C [13] 9.33% | viability, T/C [14] 5.14% | viability, T/C [15] 5.52% | viability, T/C [16] 3.09% | viability, T/C (second compound 10 µM, first compound 0.01 µM) 4.6% | viability, T/C [17] 2.45% | viability, T/C [18] 0.63%
3.99 nM: IC50 [3]
0.343 nM: IC50 [6]

CC1(O)CCCC1n1c(=O)c(C(F)F)cc2cnc(NC3CCN(S(C)(=O)=O)CC3)nc21 (stereo not drawn) + C#Cc1c(F)ccc2cc(O)cc(-c3ncc4c(N5CC6CCC(C5)N6)nc(OCC56CCCN5CC(F)C6)nc4c3F)c12
5730 nM: IC50 [4]
4260 nM: IC50 [5]
6150 nM: IC50 [1]
inactive: viability, T/C [7] 109% | viability, T/C [8] 92.2% | viability, T/C [19] 97.8% | viability, T/C [20] 87% | viability, T/C [21] 77.1% | viability, T/C [22] 31.6% | viability, T/C [9] 131% | viability, T/C [10] 109% | viability, T/C [23] 82.4% | viability, T/C [24] 76.3% | viability, T/C [25] 87.7% | viability, T/C [26] 29.5% | viability, T/C [11] 83.9% | viability, T/C [12] 72.4% | viability, T/C [27] 74.5% | viability, T/C [28] 65.9% | viability, T/C [29] 69.4% | viability, T/C [30] 23.9% | viability, T/C [13] 78.3% | viability, T/C [14] 82.7% | viability, T/C [31] 88.3% | viability, T/C [32] 67.1% | viability, T/C [33] 86.7% | viability, T/C [34] 21.3% | viability, T/C [15] 71.5% | viability, T/C [16] 62% | viability, T/C (second compound 3.16 µM, first compound 0.316 µM) 69.1% | viability, T/C (second compound 3.16 µM, first compound 1 µM) 61.6% | viability, T/C (second compound 3.16 µM, first compound 3.16 µM) 63% | viability, T/C (second compound 3.16 µM, first compound 10 µM) 13.6% | viability, T/C [17] 50% | viability, T/C [18] 71.3% | viability, T/C (second compound 10 µM, first compound 0.316 µM) 55.2% | viability, T/C (second compound 10 µM, first compound 1 µM) 62.9% | viability, T/C (second compound 10 µM, first compound 3.16 µM) 65.1%
5040 nM: IC50 [3]
7250 nM: IC50 [2]
active: viability, T/C (second compound 10 µM, first compound 10 µM) 4.24%
3940 nM: IC50 [6]

C[C@@H](NC(=O)c1ncnc(N)c1Cl)c1ncc(C(=O)Nc2cc(C(F)(F)F)c(Cl)cn2)s1
inactive: viability, T/C (compound 0.0316 µM) 102% and 115% and 92.8% | viability, T/C (compound 0.1 µM) 120% [middle of 4 runs] | viability, T/C (compound 0.316 µM) 103% [middle of 4 runs] | viability, T/C (compound 1 µM) 114% [middle of 4 runs] | viability, T/C (compound 3.16 µM) 102% [middle of 4 runs]
> 10000 nM: IC50 (curve of compound)

CCN1CCN(Cc2ccc(Nc3ncc(F)c(-c4cc(F)c5nc(C)n(C(C)C)c5c4)n3)nc2)CC1
> 1000 nM: IC50 (curve of compound)
inactive: viability, T/C (compound 0.00316 µM) 110% and 103% (2×) and 94.4% | viability, T/C (compound 0.01 µM) 91.3% [middle of 4 runs] | viability, T/C (compound 0.0316 µM) 84.7% [middle of 4 runs] | viability, T/C (compound 0.1 µM) 85.1% [middle of 4 runs] | viability, T/C (compound 0.316 µM) 92.1% [middle of 4 runs] | viability, T/C (compound 1 µM) 83.4% [middle of 4 runs]

O=C(c1ccc(F)c(F)c1Nc1ccc(I)cc1F)N1CC(O)([C@@H]2CCCCN2)C1
inactive: viability, T/C (compound 0.00316 µM) 96.7% [middle of 4 runs] | viability, T/C (compound 0.01 µM) 73.4% [middle of 4 runs] | viability, T/C (compound 0.0316 µM) 57.7% [middle of 4 runs] | viability, T/C (compound 0.1 µM) 42.3% [middle of 4 runs] | viability, T/C (compound 0.316 µM) 30.9% [middle of 4 runs] | viability, T/C (compound 1 µM) 25.4% [middle of 4 runs]

CC1(O)CCCC1n1c(=O)c(C(F)F)cc2cnc(NC3CCN(S(C)(=O)=O)CC3)nc21 (stereo not drawn)
inactive: viability, T/C (compound 0.1 µM) 94.2% [middle of 4 runs] | viability, T/C (compound 0.316 µM) 86.8% [middle of 4 runs] | viability, T/C (compound 1 µM) 96% [middle of 4 runs]

NC1c2ccccc2OC12CCN(c1cnc3c(N4CCCc5ncccc54)n[nH]c3n1)CC2 (stereo not drawn) + C=CC(=O)N1CCN(c2nc(OCC3CCCN3C)nc3c(F)c(-c4nc(N)cc(C)c4C(F)(F)F)c(Cl)cc23)C(C)C1
42.8 nM: IC50 [1]
41.6 nM: IC50 [4]
51.7 nM: IC50 [2]
38.6 nM: IC50 (curve of first compound, second compound 0.00316 µM)
active: viability, T/C (second compound 0.00316 µM, first compound 1 µM) 10.9% | viability, T/C (second compound 0.00316 µM, first compound 3.16 µM) 4.54% | viability, T/C (second compound 0.00316 µM, first compound 10 µM) 2.7% | viability, T/C (second compound 0.01 µM, first compound 1 µM) 8.08% | viability, T/C (second compound 0.01 µM, first compound 3.16 µM) 5.69% | viability, T/C (second compound 0.01 µM, first compound 10 µM) 1.86% | viability, T/C [21] 4.57% | viability, T/C [22] 1.97% | viability, T/C [24] 7.04% | viability, T/C [25] 4.16% | viability, T/C [26] 1.66% | viability, T/C [28] 8.03% | viability, T/C [29] 4.54% | viability, T/C [30] 1.99% | viability, T/C [32] 8.31% | viability, T/C [33] 6.93% | viability, T/C [34] 3.04%
47.8 nM: IC50 (curve of first compound, second compound 0.01 µM)
59.1 nM: IC50 [3]
inactive: viability, T/C (second compound 0.00316 µM, first compound 0.0316 µM) 54.5% | viability, T/C (second compound 0.00316 µM, first compound 0.1 µM) 31.4% | viability, T/C (second compound 0.00316 µM, first compound 0.316 µM) 16% | viability, T/C (second compound 0.01 µM, first compound 0.0316 µM) 58.3% | viability, T/C (second compound 0.01 µM, first compound 0.1 µM) 35% | viability, T/C (second compound 0.01 µM, first compound 0.316 µM) 19.9% | viability, T/C [7] 55.8% | viability, T/C [8] 34.1% | viability, T/C [19] 20.5% | viability, T/C [20] 10.8% | viability, T/C [9] 60.3% | viability, T/C [10] 35.2% | viability, T/C [23] 22.8% | viability, T/C [11] 69.5% | viability, T/C [12] 32.4% | viability, T/C [27] 17.3% | viability, T/C [13] 56.2% | viability, T/C [14] 30.1% | viability, T/C [31] 19.4%
